Data on 1 compound can be found in patent publication US20170027171A1, “METHOD FOR CONTROLLING PLANT DISEASES” (Nihon Nohyaku Co., Ltd., priority 2014, published 2017).

Holding throughout (type): in vivo
One assay relates to Septoria nodorum. Nature of the assay: Test for wheat glume blotch, potted wheat, foliar spray before inoculation. As to conditions: wheat in pots, 1000 L/ha spray, number of lesions per leaf ten days after inoculation. An excerpt: Test for Wheat Glume Blotch (Septoria nodorum)
(§1) The formulation produced in Formulation Example 1 was adjusted to predetermined concentrations and these prepared agrochemical liquids were applied to wheat plants in pots at a rate equivalent to 1000 L/ha with a spray gun. After the agrochemical treatment, the wheat pots were kept outdoors for 1 day or 7 days, and then spray-inoculated with wheat leaf blotch pathogen Septoria nodorum (2.4×10^6 spores/mL). After that, the wheat pots were kept in a greenhouse, in which the conditions favored the development of the disease.
Ten days after the inoculation, the number of lesions per leaf was counted for the evaluation of the control effect.

In assay [1] the test system is Septoria tritici, KUK-1-21 Strain. The assay can be described thus: Test for wheat leaf blotch, potted wheat, foliar spray before inoculation.
Text: Test for Wheat Leaf Blotch (Septoria tritici, KUK-1-21 Strain):
as §1, with “tritici (1×10^6” for “nodorum (2.4×10^6”, “disease. Three weeks after the inoculation, the lesion area index (0-10) was determined for the evaluation of the control effect.” for “disease.”

Assay [2] relates to Pseudocercosporella herpotrichoides. Nature of the assay: Test for wheat eyespot, potted wheat, foliar spray before inoculation. As to conditions: wheat in pots, percentage of stems with lesions three weeks after inoculation. An excerpt:
Test for Wheat Eyespot (Pseudocercosporella herpotrichoides)
The formulation produced in Formulation Example 1 was adjusted to predetermined concentrations and these prepared agrochemical liquids were applied to wheat plants in pots at a predetermined rate with a spray gun. After air-drying, the wheat pots were spray-inoculated with a spore suspension of wheat eyespot pathogen Pseudocercosporella herpotrichoides (4.2×10^6 spores/mL). After that, the wheat pots were kept in a greenhouse, in which the conditions favored the development of the disease. Three weeks after the inoculation, the percentage of stems with lesions was determined for the evaluation of the control effect.

With `O=C1C(Cl)=C(Cl)C(=O)N1c1ccc(F)cc1` [Fluoroimide], the “Control rate, Inoculated at 1 day post-treatment” value in the assay on Septoria nodorum (62.5 ppm) is on record as 63; in the assay on Septoria nodorum (125 ppm) it was 90; in the assay on Septoria nodorum (250 ppm), 94; with Septoria nodorum (500 ppm) it was 96; in assay [1] (62.5 ppm, wheat in pots, 1000 L/ha spray, lesion area index three weeks after inoculation), 62; in assay [1] (125 ppm, wheat in pots, 1000 L/ha spray, lesion area index three weeks after inoculation), 84. The “Control rate, Inoculated at 1 day post-treatment” value in assay [1] (250 ppm, wheat in pots, 1000 L/ha spray, lesion area index three weeks after inoculation) is recorded as 95. Besides, the “Control rate, Inoculated at 7 days post-treatment” value was determined as 85 in the assay with Septoria nodorum (500 ppm) and 65 in assay [1] (500 ppm, wheat in pots, 1000 L/ha spray, lesion area index three weeks after inoculation). Besides, in assay [1] (summary of the results), the “Effect for controlling leaf blotch (in words)” value is recorded as “highly effective”. Besides, the “Control rate, Inoculated after treatment and air-drying” value in assay [2] (125 ppm) was 56; in assay [2] (250 ppm) it was 80; in assay [2] (500 ppm), 95.
